12 compounds from ChEMBL document CHEMBL1134259, “Antitumor agents. Part 204: synthesis and biological evaluation of substituted 2-aryl quinazolinones” (Bioorg Med Chem Lett, 2001) can be followed below.

The subject of data set [1] is 1A9. Briefly: In vitro effective concentration required to reduce the number of human ovarian cancer (1A9) after 3-day incubation. As to conditions: for EC50: 1A9, 72 h, read-out: ED50 (the source's name). In kind it is functional.
The test system of data set [2] is HCT-8. As to the kind of experiment: In vitro effective concentration required to reduce the number of human ileocecal carcinoma (HCT-8) after 3-day incubation. In kind it is functional. As to conditions: for EC50: HCT-8, 72 h, read-out: ED50 (the source's name).
Data set [3] deals with KB. As to the kind of experiment: In vitro effective concentration required to reduce the number of Human epidermoid carcinoma cells (KB) of nasopharynx after 3-day incubation. As to conditions: 72 h, read-out: ED50 (the source's name). Format: functional.
Data set [4] concerns MCF7. Briefly: In vitro effective concentration required to reduce the number of human breast cancer (MCF-7) after 3-day incubation. As to conditions: for EC50: 72 h, read-out: ED50 (the source's name). Format: functional.
Data set [5] deals with SK-MEL-2. Briefly: In vitro effective concentration required to reduce the number of human melanoma cancer (SKMEL-2) after 3-day incubation. In kind it is functional. As to conditions: SK-MEL-2, 72 h, read-out: ED50 (the source's name).
The target in another data set is Tubulin. Briefly: Inhibitory concentration required against tubulin polymerization in the antimicrotubule activity test. Format: functional.
Data set [6] has as its system A549. As to the kind of experiment: In vitro effective concentration required to reduce the number of human lung carcinoma (A-549) after 3-day incubation. In kind it is functional. As to conditions: A549, 72 h, read-out: ED50 (the source's name).
Data set [7] concerns KB. As to the kind of experiment: In vitro effective concentration required to reduce the number of P-glycoprotein-expressing human epidermoid carcinoma cells (KB-VIN) of nasopharynx after 3-day incubation. In kind it is functional. As to conditions: 72 h, read-out: ED50 (the source's name).
Data set [8] can be described thus: Therapeutic index (IC50/EC50) was determined; Did not dissolve.
The subject of data set [9] is 1A9. As to the kind of experiment: In vitro effective concentration required to reduce the number of human ovarian cancer cells (1A9) after 3-day incubation. As to conditions: 1A9, 72 h, read-out: ED50 (the source's name). In kind it is functional.
In data set [10] the test system is A549. As to the kind of experiment: In vitro effective concentration required to reduce the number of human lung carcinoma cells (A-549) after 3-day incubation. In kind it is functional. As to conditions: A549, 72 h, read-out: ED50 (the source's name).
The subject of data set [11] is HCT-8. As to the kind of experiment: In vitro effective concentration required to reduce the number of human ileocecal carcinoma cells(HCT-8) after 3-day incubation. As to conditions: HCT-8, 72 h, read-out: ED50 (the source's name). Format: functional.
In data set [12] the test system is MCF7. As to the kind of experiment: In vitro effective concentration required to reduce the number of human breast cancer cells (MCF-7) after 3-day incubation. Format: functional. As to conditions: MCF7, 72 h, read-out: ED50 (the source's name).
Data set [13] concerns SK-MEL-2. Briefly: In vitro effective concentration required to reduce the number of human melanoma cancer cells (SKMEL-2) after 3-day incubation. In kind it is functional. As to conditions: SK-MEL-2, 72 h, read-out: ED50 (the source's name).
In data set [14] the test system is H9. As to the kind of experiment: Concentration required to inhibit viral replication in acutely infected H9 lymphocytes when tested for anti-HIV activity. Format: functional, cell-based. As to conditions: Homo sapiens.
Data set [15] deals with H9. Briefly: Concentration required to inhibit uninfected H9 cell growth when tested for anti-HIV activity. In kind it is functional, cell-based. As to conditions: Homo sapiens.
Data set [16] is described as follows: Therapeutic index (IC50/EC50) was determined. As to conditions: read-out: Therapeutic index.
Another data set concerns Tumor cell line. As to the kind of experiment: Tested for inhibitory activity against growth of about half of NCI's drug screen tumor cell lines at subnanomolar concentrations. In kind it is functional. As to conditions: read-out: Log TGI (converted).

One may read the IC50 as the concentration that inhibits the measured activity by half. Read a high IC50 as weaker potency in that assay. As usually defined, the TGI is the concentration at which net growth stops.

≈ marks a conversion by molar mass, not a printed value. Calls of active or inactive are those of the source. No cut-off for these calls is given here. Bounds are passed on as bounds.

As to `COc1cccc(-c2nc(O)c3cc(OC)ccc3n2)c1`, the EC50 in the data set with 1A9 [1] is 4.7 µg/mL (≈ 16.6 µM); in the data set with HCT-8 [2], over 40 µg/mL; in the data set with KB [3], 1.98 µg/mL (≈ 7.01 µM); in the data set on MCF7 [4] it was 37.5 µg/mL (≈ 133 µM); in the data set on SK-MEL-2 [5], over 40 µg/mL; in the data set on A549 [6], 28.1 µg/mL (≈ 99.5 µM). The same compound showed an IC50 at Tubulin of 4.9 µM.

For `COc1cc2nc(-c3ccc(F)cc3)nc(O)c2cc1OC`, the EC50 in the data set with 1A9 [1] is 16 µg/mL (≈ 53.3 µM); with HCT-8 [2], over 20 µg/mL; in the data set with KB [3], over 20 µg/mL; in the data set with KB [7], over 20 µg/mL; in the data set on MCF7 [4], 19.8 µg/mL (≈ 65.9 µM); in the data set on SK-MEL-2 [5] it was over 20 µg/mL. Moreover, the EC50 with A549 [6] is over 20 µg/mL. Besides, the half-maximal inhibitory concentration (IC50) at Tubulin was over 40 µM. Moreover, the Therapeutic index result in [8] is reported as “Did not dissolve”.

For `Oc1nc(-c2ccccc2F)nc2ccccc12`, the EC50 in the data set on 1A9 [9] is 17.1 µg/mL (≈ 71.2 µM); in the data set with A549 [10] it was over 20 µg/mL; with HCT-8 [11], over 20 µg/mL; in the data set with KB [3] it was over 20 µg/mL; with KB [7], 17.5 µg/mL (≈ 72.8 µM); with MCF7 [12] it was over 20 µg/mL. The EC50 in the data set with SK-MEL-2 [13] is over 20 µg/mL. Moreover, the IC50 against Tubulin is over 40 µM. The Therapeutic index result in data set [8] is recorded as “Did not dissolve”.

For `Oc1nc(-c2ccc(F)cc2)nc2ccccc12`, the EC50 in the data set with 1A9 [1] is over 20 µg/mL; in the data set on H9 [14] it was 9.18 µM; in the data set with KB [3] it was over 20 µg/mL; in the data set with KB [7], 6.5 µg/mL (≈ 27.1 µM); in the data set on MCF7 [4], over 20 µg/mL; with SK-MEL-2 [5], over 20 µg/mL. The EC50 with A549 [6] turned out to be 7.5 µg/mL (≈ 31.2 µM). The IC50 is 38.8 µM with H9 [15] and over 40 µM against Tubulin. In addition, in the data set on HCT-8 [2], the ED50 entry is “inactive”. Also, the selectivity ratio in [16] amounted to 4.22.

Turning to `COc1cccc(-c2cc(O)c3cc(N4CCCC4)ccc3n2)c1`, the TGI in the data set on Tumor cell line is under 0.001 µM.

As for `COc1cc2nc(-c3cccc(F)c3)nc(O)c2cc1OC`, the EC50 in the data set with 1A9 [1], with HCT-8 [2], in the data set on KB [7], in the data set on SK-MEL-2 [5] and in the data set with A549 [6] was over 20 µg/mL throughout. In addition, the ED50 entry with MCF7 [4] was “inactive”. The same compound displayed an IC50 against Tubulin of over 40 µM. For the same compound, the Therapeutic index entry in [8] is recorded as “Did not dissolve”.

As for `COc1cccc(-c2nc(O)c3cc(OC)c(OC)cc3n2)c1`, the EC50 in the data set on 1A9 [1] was 17.5 µg/mL (≈ 56 µM); with HCT-8 [2] it was over 20 µg/mL; in the data set on KB [3], over 20 µg/mL; in the data set with KB [7] it was 19 µg/mL (≈ 60.8 µM); with MCF7 [4], 14.5 µg/mL (≈ 46.4 µM); in the data set with A549 [6] it was over 20 µg/mL. For the same compound, the IC50 on Tubulin stood at 6.5 µM.

In the case of `COc1cc2nc(-c3ccc4ccccc4c3)nc(O)c2cc1OC`, the EC50 is 7.8 µg/mL (≈ 23.5 µM) in the data set with 1A9 [1]; 7.59 µM in the data set on H9 [14]; over 10 µg/mL in the data set on HCT-8 [2]; 7.3 µg/mL (≈ 22 µM) with KB [3]; 1.6 µg/mL (≈ 4.81 µM) with KB [7]; 6.6 µg/mL (≈ 19.9 µM) in the data set with MCF7 [4]. Besides, the EC50 worked out at 8.5 µg/mL (≈ 25.6 µM) in the data set with SK-MEL-2 [5] and 8 µg/mL (≈ 24.1 µM) in the data set on A549 [6]. The IC50 in the data set on H9 [15] was 100 µM; against Tubulin, over 40 µM. Besides, the selectivity ratio in data set [16] was found to be 13.2.

With `COc1cc2nc(-c3ccccc3F)nc(O)c2cc1OC`, the EC50 was over 20 µg/mL in the data set on 1A9 [1]; 10.9 µM in the data set with H9 [14]; 17 µg/mL (≈ 56.6 µM) in the data set on HCT-8 [2]; under 5 µg/mL in the data set with KB [3]; under 5 µg/mL in the data set with KB [7]; 13.1 µg/mL (≈ 43.6 µM) with MCF7 [4]. Further, the EC50 in the data set with SK-MEL-2 [5] and in the data set on A549 [6] was under 5 µg/mL throughout. For the same compound, the IC50 in the data set on H9 [15] is 100 µM; at Tubulin it was over 40 µM. Further, the selectivity ratio in [16] was determined as 9.17.

For the compound `Oc1nc(-c2cccc(F)c2)nc2ccccc12`, the EC50 was over 20 µg/mL in the data set on 1A9 [1]; 9.53 µM in the data set with H9 [14]; over 20 µg/mL in the data set with KB [3]; 8.5 µg/mL (≈ 35.4 µM) in the data set on KB [7]; over 20 µg/mL with MCF7 [4]; over 20 µg/mL with SK-MEL-2 [5]. In addition, the EC50 in the data set with A549 [6] amounted to 9.8 µg/mL (≈ 40.8 µM). The IC50 in the data set with H9 [15] was 30.7 µM; against Tubulin it was over 40 µM. In addition, the ED50 entry in the data set with HCT-8 [2] is “inactive”. In [16], the selectivity ratio amounted to 3.22.

In the case of `COc1cccc(-c2nc(O)c3ccccc3n2)c1`, in the data set with 1A9 [1], the ED50 result is “inactive”. For the same compound, the EC50 in the data set with HCT-8 [2], in the data set with KB [7], in the data set on MCF7 [4], in the data set on SK-MEL-2 [5] and in the data set with A549 [6] was over 20 µg/mL in each case. The IC50 against Tubulin was 8.6 µM.

`Oc1nc(-c2ccc3ccccc3c2)nc2ccccc12`: the EC50 with 1A9 [1] was found to be 8 µg/mL (≈ 29.4 µM); with HCT-8 [2], 19.1 µg/mL (≈ 70.1 µM); in the data set on KB [3], 12.5 µg/mL (≈ 45.9 µM); in the data set on KB [7], 6 µg/mL (≈ 22 µM); with MCF7 [4], 10.3 µg/mL (≈ 37.8 µM); with SK-MEL-2 [5], 13 µg/mL (≈ 47.7 µM). Also, the EC50 in the data set on A549 [6] came out at 14.4 µg/mL (≈ 52.9 µM). The same compound yielded an IC50 against Tubulin of over 40 µM. Further, the Therapeutic index entry in data set [8] was “Did not dissolve”.
